Measured values: ChEMBL document CHEMBL4813934, “Investigation of Selected Flavonoid Derivatives as Potent FLT3 Inhibitors for the Potential Treatment of Acute Myeloid Leukemia” (J Nat Prod, 2021)
Active and inactive are the calls of the source. The rule behind the calls is not given here.

Experiments:
[1] = biological target: T1, Receptor-type tyrosine-protein kinase FLT3 (Homo sapiens, UniProt P36888); assay: Inhibition of recombinant His-tagged human FLT3 (564 to 958 residues) expressed in baculovirus expression system using tyr 02 as substrate incubated for 1 hr by Z'-LYTE assay
T1 sequence (P36888 whole entry): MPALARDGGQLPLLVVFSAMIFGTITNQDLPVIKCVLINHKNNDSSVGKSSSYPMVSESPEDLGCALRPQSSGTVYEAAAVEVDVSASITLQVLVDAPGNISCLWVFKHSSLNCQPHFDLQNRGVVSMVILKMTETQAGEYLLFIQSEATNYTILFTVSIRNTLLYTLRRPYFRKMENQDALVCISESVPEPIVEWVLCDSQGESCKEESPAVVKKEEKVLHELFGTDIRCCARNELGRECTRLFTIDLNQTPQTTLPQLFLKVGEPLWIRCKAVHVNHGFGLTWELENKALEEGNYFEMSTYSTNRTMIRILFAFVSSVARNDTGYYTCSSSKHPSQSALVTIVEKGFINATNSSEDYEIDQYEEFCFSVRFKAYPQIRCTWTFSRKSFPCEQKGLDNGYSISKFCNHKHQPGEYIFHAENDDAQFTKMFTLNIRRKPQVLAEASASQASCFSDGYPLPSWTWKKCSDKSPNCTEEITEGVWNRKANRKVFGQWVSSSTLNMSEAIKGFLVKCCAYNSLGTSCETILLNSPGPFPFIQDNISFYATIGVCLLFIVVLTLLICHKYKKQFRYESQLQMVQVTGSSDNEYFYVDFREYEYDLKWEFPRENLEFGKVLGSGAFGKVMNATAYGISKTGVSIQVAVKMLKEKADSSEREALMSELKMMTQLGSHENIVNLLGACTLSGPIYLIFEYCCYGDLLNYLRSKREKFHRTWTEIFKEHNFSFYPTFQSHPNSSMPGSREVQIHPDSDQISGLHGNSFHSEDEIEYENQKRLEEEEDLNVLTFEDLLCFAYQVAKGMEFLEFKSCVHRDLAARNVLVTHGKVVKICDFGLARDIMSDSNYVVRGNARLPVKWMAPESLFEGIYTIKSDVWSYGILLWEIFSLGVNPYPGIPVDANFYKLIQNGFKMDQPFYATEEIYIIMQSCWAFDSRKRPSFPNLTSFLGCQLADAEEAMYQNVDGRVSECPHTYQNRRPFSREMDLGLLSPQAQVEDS

[2] = biological target: Receptor-type tyrosine-protein kinase FLT3 (Homo sapiens) (UniProt P36888); assay: Inhibition of recombinant His-tagged human FLT3 (564 to 958 residues) expressed in baculovirus expression system at 10 uM using tyr 02 as substrate incubated for 1 hr by Z'-LYTE assay relative to control
[3] = biological target: Receptor-type tyrosine-protein kinase FLT3 (Homo sapiens, UniProt P36888, ITD); assay: Inhibition of recombinant N-terminal GST/His6-tagged human FLT3 ITD mutant (571 to 993 residues) expressed in Sf9 insect cells incubated for 1 hr by LanthaScreen assay
[4] = biological target: Receptor-type tyrosine-protein kinase FLT3 (Homo sapiens, UniProt P36888, D835Y); assay: Inhibition of recombinant His-tagged human FLT3 D835Y mutant (564 to 958 residues) expressed in baculovirus expression system using tyr 02 as substrate incubated for 1 hr by Z'-LYTE assay
[5] = system: MOLM-13; assay: Cytotoxicity against human MOLM-13 cells assessed as reduction in cell viability measured after 72 hrs by MTT assay; assay type: functional, cell-based; conditions: MOLM-13, 72 h
[6] = system: MV4-11; assay: Cytotoxicity against human MV4-11 cells assessed as reduction in cell viability measured after 72 hrs by MTT assay; assay type: functional, cell-based; conditions: MV4-11, 72 h
[7] = system: MOLM-13; assay: Cell cycle arrest in human MOLM-13 cells assessed as accumulation at G0/G1 phase at 0.3 to 3 uM measured after 72 hrs by propidium iodide/RNaseA staining based flow cytometry analysis; assay type: functional; conditions: dose 0.3-3 µM
[8] = system: MV4-11; assay: Cell cycle arrest in human MV4-11 cells assessed as increase in accumulation at sub-G1 phase at 30 uM measured after 72 hrs by propidium iodide/RNaseA staining based flow cytometry analysis; assay type: functional
[9] = system: MOLM-13; assay: Cell cycle arrest in human MOLM-13 cells assessed as accumulation at sub-G1 phase at 0.3 uM measured after 72 hrs by propidium iodide/RNaseA staining based flow cytometry analysis (reference value: 13.76 %); assay type: functional
[10] = system: MOLM-13; assay: Cell cycle arrest in human MOLM-13 cells assessed as accumulation at G0/G1 phase at 0.3 uM measured after 72 hrs by propidium iodide/RNaseA staining based flow cytometry analysis (reference value: 53.92 %); assay type: functional
[11] = system: MOLM-13; assay: Cell cycle arrest in human MOLM-13 cells assessed as accumulation at S phase at 0.3 uM measured after 72 hrs by propidium iodide/RNaseA staining based flow cytometry analysis (reference value: 11.14 %); assay type: functional
[12] = system: MOLM-13; assay: Cell cycle arrest in human MOLM-13 cells assessed as accumulation at G2/M phase at 0.3 uM measured after 72 hrs by propidium iodide/RNaseA staining based flow cytometry analysis (reference value: 20.36 %); assay type: functional
[13] = system: MOLM-13; assay: Cell cycle arrest in human MOLM-13 cells assessed as accumulation at sub-G1 phase at 3 uM measured after 72 hrs by propidium iodide/RNaseA staining based flow cytometry analysis (reference value: 13.76 %); assay type: functional
[14] = system: MOLM-13; assay: Cell cycle arrest in human MOLM-13 cells assessed as accumulation at G0/G1 phase at 3 uM measured after 72 hrs by propidium iodide/RNaseA staining based flow cytometry analysis (reference value: 53.92 %); assay type: functional
[15] = system: MOLM-13; assay: Cell cycle arrest in human MOLM-13 cells assessed as accumulation at S phase at 3 uM measured after 72 hrs by propidium iodide/RNaseA staining based flow cytometry analysis (reference value: 11.14 %); assay type: functional
[16] = system: MOLM-13; assay: Cell cycle arrest in human MOLM-13 cells assessed as accumulation at G2/M phase at 3 uM measured after 72 hrs by propidium iodide/RNaseA staining based flow cytometry analysis (reference value: 20.36 %); assay type: functional
[17] = system: MOLM-13; assay: Cell cycle arrest in human MOLM-13 cells assessed as accumulation at sub-G1 phase at 10 uM measured after 72 hrs by propidium iodide/RNaseA staining based flow cytometry analysis (reference value: 13.76 %); assay type: functional
[18] = system: MOLM-13; assay: Cell cycle arrest in human MOLM-13 cells assessed as accumulation at G0/G1 phase at 10 uM measured after 72 hrs by propidium iodide/RNaseA staining based flow cytometry analysis (reference value: 53.92 %); assay type: functional
[19] = system: MOLM-13; assay: Cell cycle arrest in human MOLM-13 cells assessed as accumulation at S phase at 10 uM measured after 72 hrs by propidium iodide/RNaseA staining based flow cytometry analysis (reference value: 11.14 %); assay type: functional
[20] = system: MOLM-13; assay: Cell cycle arrest in human MOLM-13 cells assessed as accumulation at G2/M phase at 10 uM measured after 72 hrs by propidium iodide/RNaseA staining based flow cytometry analysis (reference value: 20.36 %); assay type: functional
[21] = system: MOLM-13; assay: Cell cycle arrest in human MOLM-13 cells assessed as accumulation at sub-G1 phase at 30 uM measured after 72 hrs by propidium iodide/RNaseA staining based flow cytometry analysis (reference value: 13.76 %); assay type: functional
[22] = system: MOLM-13; assay: Cell cycle arrest in human MOLM-13 cells assessed as accumulation at G0/G1 phase at 30 uM measured after 72 hrs by propidium iodide/RNaseA staining based flow cytometry analysis (reference value: 53.92 %); assay type: functional
[23] = system: MOLM-13; assay: Cell cycle arrest in human MOLM-13 cells assessed as accumulation at S phase at 30 uM measured after 72 hrs by propidium iodide/RNaseA staining based flow cytometry analysis (reference value: 11.14 %); assay type: functional
[24] = system: MOLM-13; assay: Cell cycle arrest in human MOLM-13 cells assessed as accumulation at G2/M phase at 30 uM measured after 72 hrs by propidium iodide/RNaseA staining based flow cytometry analysis (reference value: 20.36 %); assay type: functional
[25] = system: MV4-11; assay: Cell cycle arrest in human MV4-11 cells assessed as accumulation at sub-G1 phase at 0.3 uM measured after 72 hrs by propidium iodide/RNaseA staining based flow cytometry analysis (reference value: 7.43 %); assay type: functional
[26] = system: MV4-11; assay: Cell cycle arrest in human MV4-11 cells assessed as accumulation at G0/G1 phase at 0.3 uM measured after 72 hrs by propidium iodide/RNaseA staining based flow cytometry analysis (reference value: 50.06 %); assay type: functional
[27] = system: MV4-11; assay: Cell cycle arrest in human MV4-11 cells assessed as accumulation at S phase at 0.3 uM measured after 72 hrs by propidium iodide/RNaseA staining based flow cytometry analysis (reference value: 17.51 %); assay type: functional
[28] = system: MV4-11; assay: Cell cycle arrest in human MV4-11 cells assessed as accumulation at G2/M phase at 0.3 uM measured after 72 hrs by propidium iodide/RNaseA staining based flow cytometry analysis (reference value: 26.26 %); assay type: functional
[29] = system: MV4-11; assay: Cell cycle arrest in human MV4-11 cells assessed as accumulation at sub-G1 phase at 3 uM measured after 72 hrs by propidium iodide/RNaseA staining based flow cytometry analysis (reference value: 7.43 %); assay type: functional
[30] = system: MV4-11; assay: Cell cycle arrest in human MV4-11 cells assessed as accumulation at G0/G1 phase at 3 uM measured after 72 hrs by propidium iodide/RNaseA staining based flow cytometry analysis (reference value: 50.06 %); assay type: functional
[31] = system: MV4-11; assay: Cell cycle arrest in human MV4-11 cells assessed as accumulation at S phase at 3 uM measured after 72 hrs by propidium iodide/RNaseA staining based flow cytometry analysis (reference value: 17.51 %); assay type: functional
[32] = system: MV4-11; assay: Cell cycle arrest in human MV4-11 cells assessed as accumulation at G2/M phase at 3 uM measured after 72 hrs by propidium iodide/RNaseA staining based flow cytometry analysis (reference value: 26.26 %); assay type: functional
[33] = system: MV4-11; assay: Cell cycle arrest in human MV4-11 cells assessed as accumulation at sub-G1 phase at 10 uM measured after 72 hrs by propidium iodide/RNaseA staining based flow cytometry analysis (reference value: 7.43 %); assay type: functional
[34] = system: MV4-11; assay: Cell cycle arrest in human MV4-11 cells assessed as accumulation at G0/G1 phase at 10 uM measured after 72 hrs by propidium iodide/RNaseA staining based flow cytometry analysis (reference value: 50.06 %); assay type: functional
[35] = system: MV4-11; assay: Cell cycle arrest in human MV4-11 cells assessed as accumulation at S phase at 10 uM measured after 72 hrs by propidium iodide/RNaseA staining based flow cytometry analysis (reference value: 17.51 %); assay type: functional
[36] = system: MV4-11; assay: Cell cycle arrest in human MV4-11 cells assessed as accumulation at G2/M phase at 10 uM measured after 72 hrs by propidium iodide/RNaseA staining based flow cytometry analysis (reference value: 26.26 %); assay type: functional
[37] = system: MV4-11; assay: Cell cycle arrest in human MV4-11 cells assessed as accumulation at sub-G1 phase at 30 uM measured after 72 hrs by propidium iodide/RNaseA staining based flow cytometry analysis (reference value: 7.43 %); assay type: functional
[38] = system: MV4-11; assay: Cell cycle arrest in human MV4-11 cells assessed as accumulation at G0/G1 phase at 30 uM measured after 72 hrs by propidium iodide/RNaseA staining based flow cytometry analysis (reference value: 50.06 %); assay type: functional
[39] = system: MV4-11; assay: Cell cycle arrest in human MV4-11 cells assessed as accumulation at S phase at 30 uM measured after 72 hrs by propidium iodide/RNaseA staining based flow cytometry analysis (reference value: 17.51 %); assay type: functional
[40] = system: MV4-11; assay: Cell cycle arrest in human MV4-11 cells assessed as accumulation at G2/M phase at 30 uM measured after 72 hrs by propidium iodide/RNaseA staining based flow cytometry analysis (reference value: 26.26 %); assay type: functional

## COc1c(O)cc2oc(-c3ccc(O)cc3)cc(=O)c2c1O [HISPIDULIN]
[1]
  IC50: 440 nM
[2]
  inhibition: > 80%
[3]
  IC50: 390 nM
[4]
  IC50: 230 nM
[5]
  IC50: 7000 nM
[6]
  IC50: 6800 nM
[7]
  Activity: Active
[8]
  Activity: Active

## COc1ccc(-c2cc(=O)c3c(O)c(OC)c(O)cc3o2)cc1 [PECTOLINARIGENIN]
[1]
  IC50: 650 nM
[2]
  inhibition: > 80%
[3]
  IC50: 880 nM
[4]
  IC50: 580 nM
[5]
  IC50: 5900 nM
[6]
  IC50: 7900 nM

## COc1ccc(-c2cc(=O)c3c(O)c(OC)c(OC)cc3o2)cc1 [SALVIGENIN]
[1]
  IC50: 550 nM
[2]
  inhibition: > 80%
[3]
  IC50: 580 nM
[4]
  IC50: 290 nM
[5]
  IC50: 2600 nM
[6]
  IC50: 2600 nM
[9]
  Activity: 9.93%
[10]
  Activity: 59.22%
[11]
  Activity: 10.48%
[12]
  Activity: 20.25%
[13]
  Activity: 19.21%
[14]
  Activity: 59.78%
[15]
  Activity: 5.26%
[16]
  Activity: 15.19%
[17]
  Activity: 40.89%
[18]
  Activity: 42.74%
[19]
  Activity: 5.4%
[20]
  Activity: 11.15%
[21]
  Activity: 43.19%
[22]
  Activity: 40.99%
[23]
  Activity: 4.05%
[24]
  Activity: 11.69%
[25]
  Activity: 6.78%
[26]
  Activity: 50.11%
[27]
  Activity: 20.59%
[28]
  Activity: 25.07%
[29]
  Activity: 6.83%
[30]
  Activity: 70.55%
[31]
  Activity: 8.74%
[32]
  Activity: 14.37%
[33]
  Activity: 14.62%
[34]
  Activity: 69.17%
[35]
  Activity: 6.62%
[36]
  Activity: 10.19%
[37]
  Activity: 9.4%
[38]
  Activity: 73.88%
[39]
  Activity: 5.91%
[40]
  Activity: 11.25%
[7]
  Activity: Active
[8]
  Activity: Active
